Experimental data taken from patent US8586591B2, “Aminopyrazine derivative and medicine” (Nippon Shinyaku Co., Ltd., priority 2009, dated 2013).
Structures can show the parent of a compound that is named as a salt.

The compounds below were run against T1, JAK3 tyrosine kinase (Homo sapiens, UniProt P52333) (assay: Test 1: inhibitory activity to JAK3 tyrosine kinase (ELISA)). Conditions: 25 μM ATP in substrate solution, 30° C. for 1 hour, n=2.
T1 construct: purchased Carnabioscience Co
T1 sequence (P52333 1-1124): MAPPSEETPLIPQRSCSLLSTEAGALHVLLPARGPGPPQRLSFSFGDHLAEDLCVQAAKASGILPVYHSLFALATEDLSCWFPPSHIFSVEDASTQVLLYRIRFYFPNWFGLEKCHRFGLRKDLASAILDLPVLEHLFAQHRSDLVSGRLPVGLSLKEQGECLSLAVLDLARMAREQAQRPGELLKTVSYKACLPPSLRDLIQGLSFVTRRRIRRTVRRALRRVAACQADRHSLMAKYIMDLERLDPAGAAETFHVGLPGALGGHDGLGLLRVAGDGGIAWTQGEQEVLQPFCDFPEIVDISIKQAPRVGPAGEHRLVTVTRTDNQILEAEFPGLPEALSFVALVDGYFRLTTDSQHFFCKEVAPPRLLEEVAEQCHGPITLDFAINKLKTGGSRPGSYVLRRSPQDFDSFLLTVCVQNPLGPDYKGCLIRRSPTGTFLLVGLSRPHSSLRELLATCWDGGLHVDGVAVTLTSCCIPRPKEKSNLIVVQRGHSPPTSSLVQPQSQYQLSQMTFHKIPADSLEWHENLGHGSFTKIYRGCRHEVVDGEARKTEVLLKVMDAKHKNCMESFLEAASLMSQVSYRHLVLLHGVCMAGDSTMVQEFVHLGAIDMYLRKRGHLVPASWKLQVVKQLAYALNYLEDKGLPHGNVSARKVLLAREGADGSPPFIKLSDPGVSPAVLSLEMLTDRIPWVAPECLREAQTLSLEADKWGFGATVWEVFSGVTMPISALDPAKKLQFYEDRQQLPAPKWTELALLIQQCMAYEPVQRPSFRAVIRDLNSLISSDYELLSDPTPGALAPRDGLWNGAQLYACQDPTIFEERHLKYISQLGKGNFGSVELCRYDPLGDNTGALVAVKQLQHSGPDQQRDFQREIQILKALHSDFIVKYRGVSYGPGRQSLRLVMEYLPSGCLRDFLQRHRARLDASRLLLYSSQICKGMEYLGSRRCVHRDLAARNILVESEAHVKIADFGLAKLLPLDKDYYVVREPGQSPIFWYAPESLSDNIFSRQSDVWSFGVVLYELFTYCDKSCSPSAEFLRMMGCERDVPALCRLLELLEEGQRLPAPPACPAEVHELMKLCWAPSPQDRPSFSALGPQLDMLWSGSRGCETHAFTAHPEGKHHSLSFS
Assay type: biochemical
Procedure: Test 1: Test for inhibitory activity to JAK2 and JAK3 tyrosine kinase 1. […] The test material was dissolved in dimethylsulfoxide (DMSO) to be 10 mM, and further diluted with DMSO to be 100-fold concentrations for measurement (1000, 300, 100, 30, 10, 3, 1, 0.3, 0.1, 0.03, 0.01 μM). In addition, solutions diluted with an assay buffer up to 20 times were used as solutions of the test material. As a negative control, a solution of DMSO diluted 20 times with an assay buffer was used. […] 2. Measurement of the Activities of JAK2 and JAK3 Tyrosine Kinases The activity was determined by ELISA. […] The absorbance was measured by means of a micro-plate reader (BIO-RAD; Model 3550) at 450 nm. 3. Analysis of the Results of the Measurement The measured absorbance was subjected to a non-linear regression analysis by means of a SAS system (SAS Institute Inc.), and the concentration (IC50) of the test material which inhibited 50% of the activity of each tyrosine kinase was estimated.

IC50 | SMILES
39 nM | C[C@H](Nc1nc(Nc2cnccn2)cc(N2CC(C(N)=O)C2)n1)c1ccc(F)cc1 [Example 158, (S)-1-{2-[1-(4-Fluorophenyl)ethylamino]-6-(pyrazin-2-ylamino)pyrimidin-4-yl}azetidine-3-carboxamide]
150 nM | C[C@H](Nc1cc(OC2CCOCC2)cc(Nc2cnccn2)n1)c1ccc(F)cc1 [Example 157, (S)—N^2-[1-(4-Fluorophenyl)ethyl]-N^6-(pyrazin-2-yl)-4-(tetrahydro-2H-pyran-4-yloxy)pyridine-2,6-diamine hydrochloride]
350 nM | C[C@H](Nc1cc(Nc2ccccn2)cc(Nc2cnccn2)n1)c1ccc(F)cc1 [Example 132, (S)—N^2-[1-(4-Fluorophenyl)ethyl]-N^6-(pyrazin-2-yl)-N^4-(pyridin-2-yl)pyridine-2,4,6-triamine]
170 nM | Cc1cn(-c2cc(Nc3cnccn3)nc(N[C@@H](C)c3ccc(F)cc3)c2)cn1 [Example 136, (S)—N^2-[1-(4-Fluorophenyl)ethyl]-4-(4-methyl-1H-imidazol-1-yl)-N^6-(pyrazin-2-yl)pyridine-2,6-diamine dihydrochloride]
1400 nM | C[C@H](Nc1nc(Nc2cnccn2)cc(-c2ncon2)n1)c1ccc(F)cc1 [Example 146, (S)—N^2-[1-(4-Fluorophenyl)ethyl]-6-(1,2,4-oxadiazol-3-yl)-N^4-(pyrazin-2-yl)pyrimidine-2,4-diamine hydrochloride]
46 nM | C[C@H](Nc1cc(N2CCS(=O)(=O)CC2)cc(Nc2cnccn2)n1)c1ccc(F)cc1 [Example 128, 4-{2-[(1S)-1-(4-Fluorophenyl)ethylamino]-6-(pyrazin-2-ylamino)pyridin-4-yl}-1λ^6,4-thiomorpholin-1,1-dione]
320 nM | CNS(=O)(=O)c1ccc(-c2cc(Nc3cnccn3)nc(N[C@@H](C)c3ccc(F)cc3)n2)cc1 [Example 135, (S)-4-{2-[1-(4-Fluorophenyl)ethylamino]-6-(pyrazin-2-ylamino)pyrimidin-4-yl}-N-methylbenzenesulfonamide hydrochloride]
420 nM | C[C@H](Nc1cc(OCC2CC2)cc(Nc2cnccn2)n1)c1ccc(F)cc1 [Example 138, (S)-4-(Cyclopropylmethoxy)-N^2-[1-(4-fluorophenyl)ethyl]-N^6-(pyrazin-2-yl)pyridine-2,6-diamine]
490 nM | C[C@H](Nc1cc(C(=O)NC(C)(C)C)cc(Nc2cnccn2)n1)c1ccc(F)cc1 [Example 151, (S)—N-t-Butyl-2-[1-(4-fluorophenyl)ethylamino]-6-(pyrazin-2-ylamino)isonicotinamide]
390 nM | CC(C)NC(=O)c1cc(Nc2cnccn2)nc(N[C@@H](C)c2ccc(F)cc2)c1 [Example 155, (S)-2-[1-(4-Fluorophenyl)ethylamino]-N-isopropyl-6-(pyrazin-2-ylamino)isonicotinamide]
370 nM | C[C@H](Nc1cc(C(=O)NCc2ccccc2)cc(Nc2cnccn2)n1)c1ccc(F)cc1 [Example 162, (S)—N-Benzyl-2-[1-(4-fluorophenyl)ethylamino]-6-(pyrazin-2-ylamino)isonicotinamide hydrochloride]
61 nM | C[C@H](Nc1cc(CO)cc(Nc2cnccn2)n1)c1ccc(F)cc1 [Example 140, (S)-{2-[1-(4-Fluorophenyl)ethylamino]-6-(pyrazin-2-ylamino)pyridin-4-yl}methanol]
440 nM | C[C@H](Nc1cc(C(=O)O)cc(Nc2cnccn2)n1)c1ccc(F)cc1 [Example 141, (S)-2-[1-(4-Fluorophenyl)ethylamino]-6-(pyrazin-2-ylamino)isonicotinic acid]
570 nM | CC(=O)N1CCCN(c2cc(Nc3cnccn3)nc(N[C@@H](C)c3ccc(F)cc3)c2)CC1 [Example 130, (S)-1-(4-{2-[1-(4-fluorophenyl)ethylamino]-6-(pyrazin-2-ylamino)pyridin-4-yl}-1,4-diazepan-1-yl)ethanone]
210 nM | C[C@H](Nc1cc(C#N)cc(Nc2cnccn2)n1)c1ccc(F)cc1 [Example 144, (S)-2-[1-(4-Fluorophenyl)ethylamino]-6-(pyrazin-2-ylamino)isonicotinonitrile]
690 nM | C[C@H](Nc1cc(C(=O)N(C)C)cc(Nc2cnccn2)n1)c1ccc(F)cc1 [Example 149, (S)-2-[1-(4-Fluorophenyl)ethylamino]-N,N-dimethyl-6-(pyrazin-2-ylamino)isonicotinamide]
810 nM | COC(=O)c1ccc(Nc2cnccn2)nc1N[C@@H](C)c1ccc(F)cc1 [Example 148, Methyl (S)-2-[1-(4-fluorophenyl)ethylamino]-6-(pyrazin-2-ylamino)nicotinate]
920 nM | C[C@H](Nc1cc(-c2ncon2)cc(Nc2cnccn2)n1)c1ccc(F)cc1 [Example 147, (S)—N^2-[1-(4-Fluorophenyl)ethyl]-4-(1,2,4-oxadiazol-3-yl)-N^6-(pyrazin-2-yl)pyridine-2,6-diamine hydrochloride]
230 nM | C[C@H](Nc1cc(N2CCC3(CC2)OCCO3)cc(Nc2cnccn2)n1)c1ccc(F)cc1 [Example 133, N^2-[(S)-1-(4-Fluorophenyl)ethyl]-N^6-(pyrazin-2-yl)-4-(1,4-dioxa-8-azaspiro[4.5]decan-8-yl)pyridine-2,6-diamine]
170 nM | C[C@H](Nc1cc(C(=O)NCCO)cc(Nc2cnccn2)n1)c1ccc(F)cc1 [Example 159, (S)-2-[1-(4-Fluorophenyl)ethylamino]-N-(2-hydroxyethyl)-6-(pyrazin-2-ylamino)isonicotinamide]
360 nM | COCCNC(=O)c1cc(Nc2cnccn2)nc(N[C@@H](C)c2ccc(F)cc2)c1 [Example 165, (S)-2-[1-(4-Fluorophenyl)ethylamino]-N-(2-methoxyethyl)-6-(pyrazin-2-ylamino)isonicotinamide]
180 nM | C[C@H](Nc1cc(Nc2ncccn2)cc(Nc2cnccn2)n1)c1ccc(F)cc1 [Example 131, (S)—N^2-[1-(4-Fluorophenyl)ethyl]-N^6-(pyrazin-2-yl)-N^4-(pyrimidin-2-yl)pyridine-2,4,6-triamine]
170 nM | C[C@H](Nc1cc(C(=O)NC2CC2)cc(Nc2cnccn2)n1)c1ccc(F)cc1 [Example 163, (S)—N-Cyclopropyl-2-[1-(4-fluorophenyl)ethylamino]-6-(pyrazin-2-ylamino)isonicotinamide]
160 nM | C[C@H](Nc1cc(Nc2cnccn2)cc(Nc2cnccn2)n1)c1ccc(F)cc1 [Example 137, (S)—N^2-[1-(4-Fluorophenyl)ethyl]-N^4,N^6-di(pyrazin-2-yl)pyridine-2,4,6-triamine]
380 nM | C[C@H](Nc1cc(N2CCC(O)CC2)cc(Nc2cnccn2)n1)c1ccc(F)cc1 [Example 129, (S)-1-{2-[1-(4-Fluorophenyl)ethylamino]-6-(pyrazin-2-ylamino)pyridin-4-yl}piperidin-4-ol]
620 nM | COC(=O)c1cc(Nc2cnccn2)nc(N[C@@H](C)c2ccc(F)cc2)c1 [Example 134, Methyl (S)-2-[1-(4-fluorophenyl)ethylamino]-6-(pyrazin-2-ylamino)isonicotinate]
300 nM | C[C@H](Nc1cc(C(=O)N2CCN(S(C)(=O)=O)CC2)cc(Nc2cnccn2)n1)c1ccc(F)cc1 [Example 153, (S)-{2-[1-(4-Fluorophenyl)ethylamino]-6-(pyrazin-2-ylamino)pyridin-4-yl}[4-(methanesulfonyl)piperazin-1-yl]methanone]
200 nM | COc1cc(Nc2cnccn2)nc(N[C@@H](C)c2ccc(F)cc2)c1 [Example 127, (S)—N^2-[1-(4-Fluorophenyl)ethyl]-4-methoxy-N^6-(pyrazin-2-yl)pyridine-2,6-diamine]
66 nM | COCCOc1cc(Nc2cnccn2)nc(N[C@@H](C)c2ccc(F)cc2)c1 [Example 142, (S)—N^2-[1-(4-Fluorophenyl)ethyl]-4-(2-methoxyethoxy)-N^6-(pyrazin-2-yl)pyridine-2,6-diamine hydrochloride]
